Active and inactive are the calls of the source. The calls are words filed in the database; no cut-off is given here.
Test system: MCF7
Assay: Inhibition of DNA methylation in human MCF7 cells assessed as reduction in H3K27me3 levels at 15 uM after 48 hrs by Western blot analysis
Assay type: cell-based
Conditions: not given

Compound | inhibition
CN1c2ccccc2C(=O)N2CCc3c([nH]c4ccccc34)[C@H]21 | 60%
CCCCN1C(=O)[C@H]2Cc3c(n(CO)c4ccccc34)CN2C1=O | 20%

Test system: MCF7
Assay: Inhibition of DNA methylation in human MCF7 cells assessed as reduction in H3K9me3 levels at 15 uM after 48 hrs by Western blot analysis
Assay type: cell-based
Conditions: not given

Compound | inhibition
CN1c2ccccc2C(=O)N2CCc3c([nH]c4ccccc34)[C@H]21 | 100%
CCCCN1C(=O)[C@H]2Cc3c(n(CO)c4ccccc34)CN2C1=O | 40%

Test system: MCF7
Assay: Antiproliferative activity against human MCF7 cells after 48 to 72 hrs by MTT assay
Assay type: functional, cell-based
Conditions: not given

Compound | IC50
CN1c2ccccc2C(=O)N2CCc3c([nH]c4ccccc34)[C@H]21 | 5.4 µM
CCCCN1C(=O)[C@H]2Cc3c(n(CO)c4ccccc34)CN2C1=O | 30.7 µM

Test system: not listed separately
Assay: Antiproliferative activity against human H460 cells after 48 to 72 hrs by MTT assay
Assay type: functional, cell-based
Conditions: NCI-H460

Compound | IC50
CN1c2ccccc2C(=O)N2CCc3c([nH]c4ccccc34)[C@H]21 | 0.26 µM
CCCCN1C(=O)[C@H]2Cc3c(n(CO)c4ccccc34)CN2C1=O | > 20 µM

Test system: MSTO-211H
Assay: Antiproliferative activity against human MSTO-211H cells after 48 to 72 hrs by MTT assay
Assay type: functional, cell-based
Conditions: not given

Compound | IC50
CN1c2ccccc2C(=O)N2CCc3c([nH]c4ccccc34)[C@H]21 | 0.54 µM
CCCCN1C(=O)[C@H]2Cc3c(n(CO)c4ccccc34)CN2C1=O | > 20 µM

Test system: MCF7
Assay: Cell cycle arrest in human MCF7 cells assessed as accumulation at G2/M phase at 15 uM after 72 hrs by flow cytometry relative to control
Assay type: functional
Conditions: not given

Compound | Activity
CN1c2ccccc2C(=O)N2CCc3c([nH]c4ccccc34)[C@H]21 | 39.3%

Test system: MCF7
Assay: Cell cycle arrest in human MCF7 cells assessed as accumulation at G0/G1 phase at 15 uM after 24 hrs by flow cytometry relative to control
Assay type: functional
Conditions: not given

Compound | Activity
CCCCN1C(=O)[C@H]2Cc3c(n(CO)c4ccccc34)CN2C1=O | 3%

Test system: MCF7
Assay: Induction of apoptosis in human MCF7 cells assessed as viable cells at 15 uM after 48 hrs by AnnexinV-FITC staining based flow cytometry (reference value: 74.4 +/- 9.1 %)
Assay type: functional
Conditions: MCF7, 48 h, read-out: Activity

Compound | viability at 15 µM
CN1c2ccccc2C(=O)N2CCc3c([nH]c4ccccc34)[C@H]21 | 51.5%
Nc1nccc2c1ncn2[C@@H]1C=C(CO)[C@@H](O)[C@H]1O | 32.2%
CCCCN1C(=O)[C@H]2Cc3c(n(CO)c4ccccc34)CN2C1=O | 71.1%

Test system: MCF7
Assay: Induction of apoptosis in human MCF7 cells assessed as viable cells at 15 uM after 72 hrs by AnnexinV-FITC staining based flow cytometry (reference value: 60.5 +/- 6 %)
Assay type: functional
Conditions: MCF7, 72 h, read-out: Activity

Compound | viability at 15 µM
CN1c2ccccc2C(=O)N2CCc3c([nH]c4ccccc34)[C@H]21 | 41.9%
Nc1nccc2c1ncn2[C@@H]1C=C(CO)[C@@H](O)[C@H]1O | 52.6%
CCCCN1C(=O)[C@H]2Cc3c(n(CO)c4ccccc34)CN2C1=O | 52.1%

Test system: MCF7
Assay: Induction of apoptosis in human MCF7 cells assessed as early apoptotic cells at 15 uM after 48 hrs by AnnexinV-FITC staining based flow cytometry (reference value: 7.8 +/- 5.3 %)
Assay type: functional
Conditions: not given

Compound | Activity
CN1c2ccccc2C(=O)N2CCc3c([nH]c4ccccc34)[C@H]21 | 11.9%
Nc1nccc2c1ncn2[C@@H]1C=C(CO)[C@@H](O)[C@H]1O | 12.8%
CCCCN1C(=O)[C@H]2Cc3c(n(CO)c4ccccc34)CN2C1=O | 8.3%

Test system: MCF7
Assay: Induction of apoptosis in human MCF7 cells assessed as early apoptotic cells at 15 uM after 72 hrs by AnnexinV-FITC staining based flow cytometry (reference value: 20.1 +/- 7.3 %)
Assay type: functional
Conditions: not given

Compound | Activity
CN1c2ccccc2C(=O)N2CCc3c([nH]c4ccccc34)[C@H]21 | 16.8%
Nc1nccc2c1ncn2[C@@H]1C=C(CO)[C@@H](O)[C@H]1O | 17.4%
CCCCN1C(=O)[C@H]2Cc3c(n(CO)c4ccccc34)CN2C1=O | 25.5%

Test system: MCF7
Assay: Induction of apoptosis in human MCF7 cells assessed as late apoptotic cells at 15 uM after 48 hrs by AnnexinV-FITC staining based flow cytometry (reference value: 7.6 +/- 5.9 %)
Assay type: functional
Conditions: not given

Compound | Activity
CN1c2ccccc2C(=O)N2CCc3c([nH]c4ccccc34)[C@H]21 | 27.6%
Nc1nccc2c1ncn2[C@@H]1C=C(CO)[C@@H](O)[C@H]1O | 16.1%
CCCCN1C(=O)[C@H]2Cc3c(n(CO)c4ccccc34)CN2C1=O | 12.1%

Test system: MCF7
Assay: Induction of apoptosis in human MCF7 cells assessed as late apoptotic cells at 15 uM after 72 hrs by AnnexinV-FITC staining based flow cytometry (reference value: 11.8 +/- 2.2 %)
Assay type: functional
Conditions: not given

Compound | Activity
CN1c2ccccc2C(=O)N2CCc3c([nH]c4ccccc34)[C@H]21 | 33.2%
Nc1nccc2c1ncn2[C@@H]1C=C(CO)[C@@H](O)[C@H]1O | 24.1%
CCCCN1C(=O)[C@H]2Cc3c(n(CO)c4ccccc34)CN2C1=O | 15.2%

Test system: MCF7
Assay: Induction of apoptosis in human MCF7 cells assessed as necrotic cells at 15 uM after 48 hrs by AnnexinV-FITC staining based flow cytometry (reference value: 10.2 +/- 1.9 %)
Assay type: functional
Conditions: not given

Compound | Activity
CN1c2ccccc2C(=O)N2CCc3c([nH]c4ccccc34)[C@H]21 | 9%
Nc1nccc2c1ncn2[C@@H]1C=C(CO)[C@@H](O)[C@H]1O | 7.8%
CCCCN1C(=O)[C@H]2Cc3c(n(CO)c4ccccc34)CN2C1=O | 8.5%

Test system: MCF7
Assay: Induction of apoptosis in human MCF7 cells assessed as necrotic cells at 15 uM after 72 hrs by AnnexinV-FITC staining based flow cytometry (reference value: 7.6 +/- 1 %)
Assay type: functional
Conditions: not given

Compound | Activity
CN1c2ccccc2C(=O)N2CCc3c([nH]c4ccccc34)[C@H]21 | 8.1%
Nc1nccc2c1ncn2[C@@H]1C=C(CO)[C@@H](O)[C@H]1O | 5.9%
CCCCN1C(=O)[C@H]2Cc3c(n(CO)c4ccccc34)CN2C1=O | 7.2%

Target: T1, Histone-lysine N-methyltransferase EHMT2 (Homo sapiens) (UniProt Q96KQ7)
T1 sequence (whole entry): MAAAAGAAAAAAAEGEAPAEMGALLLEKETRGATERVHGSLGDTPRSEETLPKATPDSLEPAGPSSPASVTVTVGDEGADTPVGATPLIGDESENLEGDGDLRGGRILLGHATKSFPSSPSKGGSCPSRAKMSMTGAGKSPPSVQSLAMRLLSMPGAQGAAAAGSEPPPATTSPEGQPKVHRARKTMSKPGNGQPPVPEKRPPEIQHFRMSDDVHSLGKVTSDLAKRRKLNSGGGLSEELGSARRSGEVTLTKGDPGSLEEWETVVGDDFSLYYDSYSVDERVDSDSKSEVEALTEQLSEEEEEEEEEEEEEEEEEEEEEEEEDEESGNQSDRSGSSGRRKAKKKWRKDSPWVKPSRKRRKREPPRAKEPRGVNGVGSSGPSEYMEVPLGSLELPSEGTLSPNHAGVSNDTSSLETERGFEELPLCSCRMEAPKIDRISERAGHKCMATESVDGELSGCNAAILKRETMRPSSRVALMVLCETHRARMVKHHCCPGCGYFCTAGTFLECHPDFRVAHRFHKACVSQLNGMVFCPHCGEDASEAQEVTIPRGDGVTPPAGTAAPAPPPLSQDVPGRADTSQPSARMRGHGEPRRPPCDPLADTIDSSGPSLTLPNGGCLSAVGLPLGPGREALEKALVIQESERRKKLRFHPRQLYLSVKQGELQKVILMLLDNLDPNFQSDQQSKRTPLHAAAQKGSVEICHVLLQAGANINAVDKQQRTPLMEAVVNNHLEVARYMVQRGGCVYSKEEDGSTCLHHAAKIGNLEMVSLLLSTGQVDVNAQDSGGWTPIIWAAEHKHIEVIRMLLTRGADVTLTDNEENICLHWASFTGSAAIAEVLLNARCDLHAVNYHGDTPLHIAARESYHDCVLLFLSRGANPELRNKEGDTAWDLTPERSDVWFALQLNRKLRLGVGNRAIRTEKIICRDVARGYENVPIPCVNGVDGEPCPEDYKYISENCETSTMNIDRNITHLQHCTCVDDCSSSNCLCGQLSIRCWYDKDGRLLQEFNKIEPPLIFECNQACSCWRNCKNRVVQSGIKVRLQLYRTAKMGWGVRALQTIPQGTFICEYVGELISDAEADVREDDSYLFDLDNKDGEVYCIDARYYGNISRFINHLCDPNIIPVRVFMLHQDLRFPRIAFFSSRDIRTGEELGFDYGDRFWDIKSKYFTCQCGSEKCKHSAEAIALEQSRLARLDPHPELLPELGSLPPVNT
Assay: Inhibition of G9a in human MCF7 nuclear extracts assessed as reduction in H3K9 levels at 15 uM after 48 hrs
Assay type: cell-based
Conditions: not given

Compound | inhibition
CN1c2ccccc2C(=O)N2CCc3c([nH]c4ccccc34)[C@H]21 | Active
Nc1nccc2c1ncn2[C@@H]1C=C(CO)[C@@H](O)[C@H]1O | Active
CCCCN1C(=O)[C@H]2Cc3c(n(CO)c4ccccc34)CN2C1=O | Active

Target: T1, Histone-lysine N-methyltransferase EHMT2 (Homo sapiens)
Assay: Inhibition of G9a in human MCF7 nuclear extracts assessed as reduction in H3K27 levels at 15 uM after 48 hrs
Assay type: cell-based
Conditions: not given

Compound | inhibition
CN1c2ccccc2C(=O)N2CCc3c([nH]c4ccccc34)[C@H]21 | inactive
Nc1nccc2c1ncn2[C@@H]1C=C(CO)[C@@H](O)[C@H]1O | Active
CCCCN1C(=O)[C@H]2Cc3c(n(CO)c4ccccc34)CN2C1=O | Active

Test system: not listed separately
Assay: Antiproliferative activity against human Ovarian cancer LA#83 cells assessed as cell survival at 20 uM after 72 hrs by MTT assay relative to control
Assay type: functional
Conditions: read-out: Survival

Compound | viability at 20 µM
CN1c2ccccc2C(=O)N2CCc3c([nH]c4ccccc34)[C@H]21 | 53.2%
Nc1nccc2c1ncn2[C@@H]1C=C(CO)[C@@H](O)[C@H]1O | 42.5%
CCCCN1C(=O)[C@H]2Cc3c(n(CO)c4ccccc34)CN2C1=O | 67.8%

Test system: not listed separately
Assay: Antiproliferative activity against human Ovarian cancer DC#83 cells assessed as cell survival at 20 uM after 72 hrs by MTT assay relative to control
Assay type: functional
Conditions: read-out: Survival

Compound | viability at 20 µM
CN1c2ccccc2C(=O)N2CCc3c([nH]c4ccccc34)[C@H]21 | 65.5%
Nc1nccc2c1ncn2[C@@H]1C=C(CO)[C@@H](O)[C@H]1O | 63.5%
CCCCN1C(=O)[C@H]2Cc3c(n(CO)c4ccccc34)CN2C1=O | 101%

Test system: not listed separately
Assay: Antiproliferative activity against human Ovarian cancer LA#110 cells assessed as cell survival at 20 uM after 72 hrs by MTT assay relative to control
Assay type: functional
Conditions: read-out: Survival

Compound | viability at 20 µM
CN1c2ccccc2C(=O)N2CCc3c([nH]c4ccccc34)[C@H]21 | 26.8%
Nc1nccc2c1ncn2[C@@H]1C=C(CO)[C@@H](O)[C@H]1O | 30.4%
CCCCN1C(=O)[C@H]2Cc3c(n(CO)c4ccccc34)CN2C1=O | 56%

Test system: not listed separately
Assay: Antiproliferative activity against human Ovarian cancer DC#110 cells assessed as cell survival at 20 uM after 72 hrs by MTT assay relative to control
Assay type: functional
Conditions: read-out: Survival

Compound | viability at 20 µM
CN1c2ccccc2C(=O)N2CCc3c([nH]c4ccccc34)[C@H]21 | 43.1%
Nc1nccc2c1ncn2[C@@H]1C=C(CO)[C@@H](O)[C@H]1O | 13.6%
CCCCN1C(=O)[C@H]2Cc3c(n(CO)c4ccccc34)CN2C1=O | 82.2%

Test system: MCF7
Assay: Inhibition of DNA methylation in human MCF7 cells assessed as melting temperature of RARbeta amplicon DNA by qPCR method (reference value: 77 degC)
Assay type: cell-based
Conditions: not given

Compound | Tm
CN1c2ccccc2C(=O)N2CCc3c([nH]c4ccccc34)[C@H]21 | 75.5 °C

Test system: MCF7
Assay: Inhibition of DNA methylation in human MCF7 cells assessed as decrease in 5-methylcytosine level by ELISA
Assay type: cell-based
Conditions: not given

Compound | inhibition
CN1c2ccccc2C(=O)N2CCc3c([nH]c4ccccc34)[C@H]21 | Active
CCCCN1C(=O)[C@H]2Cc3c(n(CO)c4ccccc34)CN2C1=O | Active

Test system: MCF7
Assay: Inhibition of DNA methylation in human MCF7 cells assessed as reduction in H3K9me3 levels at 0.5 to 1 uM after 48 hrs by Western blot analysis
Assay type: cell-based
Conditions: not given

Compound | inhibition
Nc1nccc2c1ncn2[C@@H]1C=C(CO)[C@@H](O)[C@H]1O | inactive

Test system: MCF7
Assay: Inhibition of DNA methylation in human MCF7 cells assessed as decrease in methylation of RARbeta DNA by qPCR method
Assay type: cell-based
Conditions: not given

Compound | inhibition
CCCCN1C(=O)[C@H]2Cc3c(n(CO)c4ccccc34)CN2C1=O | Active
